Measured values: patent US20150064273A1, “Mesenchymal Stem Cells Conditioned Medium and Methods of Generating and Using the Same” (Gamida-Cell Ltd., priority 2012, published 2015)

Legend:
Type in all cases: cell-based
mesenchymal stem cells [1] = experiment: MSC cell size (Cedex cell counter) and granularity (side scatter FACS)
Protocol: Measurement of cell size: Cell size was measured using Cedex Automated Cell Counter (Innovatis). The cells were diluted 1:2 in Trypan Blue (Sigma) and cell size was measured automatically under microscope. Measurement of granularicity: Following trypsin treatment, the cells were analyzed for granularicity by side scatter FACS.

[2] = system: Keratinocyte Growth Factor (KGF); experiment: KGF content of MSC conditioned medium by ELISA; details: passage 4; 5 mM NAM, 50 ng/ml FGF4; serum- and FGF4-free medium for 24 hours
Protocol: (§1) FIG. 24 is a bar graph illustrating enhancement of Keratinocyte Growth Factor (KGF) content of conditioned medium from nicotinamide and FGF4-treated MSC cultures. Bone marrow mesenchymal stem cells were isolated and cultured as in FIG. 22 above. Cultured media was changed to medium without fetal bovine serum or FGF4 24 hours prior to passage 4, collected from the passage 4 cultures and assayed for KGF content by ELISA. −NAM, −FGF4=control; +NAM−FGF4=5 mM NAM, +NAM+FGF4=5 mM NAM+50 ng/ml FGF4. Note the significant effect of combined FGF4 and nicotinamide on KGF secretion; Mesenchymal stem cells cultured with nicotinamide and FGF4 have enhanced expansion potential, and maintain an undifferentiated state, compared to mesenchymal stem cells cultured in unsupplemented medium, or mesenchymal stem cells cultured with added nicotinamide alone. In order to assess whether mesenchymal stem cells cultured with nicotinamide or nicotinamide and FGF4 modify the culture medium in a unique manner, secretion of biologically active molecules into the culture medium was measured by ELISA, after depletion of the FGF4 from the medium.

[3] = system: bone marrow derived mesenchymal stem cells; experiment: Bone marrow derived MSC seeding and expansion with nicotinamide
Protocol: FIG. 11 is a bar graph illustrating % of BM derived adherent cells expressing mesenchymal stem cells markers in culture seeded +/−NAM, prior to the first passage. Mononuclear cells were isolated from bone marrow using Ficoll and the “plastic adherence” method in the presence or absence of Nicotinamide. Non-adherent cells were washed away 3-4 days later and the media was replaced every 3-4 days. FACS analysis was performed in order to obtain expression levels of surface molecules prior to the first passage (8 days post-seeding). Isolation: Bone marrow derived and adipose tissue derived mesenchymal cells were isolated based on their plastic adherence potential in expansion medium containing: High glucose DMEM and 10% Fetal Bovine Serum (FBS, Hyclone, Logan, Utah, USA) supplemented with 0.05 mg/ml Gentamicin (Sigma) and 2 mM L-glutamine (Biological Industries, Israel). Cells were allowed to adhere for 3-4 days and non-adherent cells were washed out with medium changes. The medium was further exchanged with fresh medium every 3-4 days. Maintenance and expansion: Once adherent cells reached approximately 80-90% confluency, they were detached with 0.25% trypsin-EDTA (Sigma), washed twice in DMEM and 10% Fetal Bovine Serum, with centrifugation, 400 g, 5 minutes, and re-plated at a 1:2 to 1:1000 dilution under the same culture conditions. Measurement of number of cells in culture: Cell number was measured using Cedex Automated Cell Counter (Innovatis). The cells were diluted 1:2 in Trypan Blue (Sigma) and cell number was measured automatically under microscope. Treatment of mesenchymal cultures with nicotinamide: Mesenchymal cultures were initiated as described above, […], or in combination with growth factors or growth factors alone, incubated at 37° C. in a humidified atmosphere of 5% CO2 in air. At each passage and at each medium exchange, the cultures were supplemented with mesenchymal medium, nicotinamide and growth factors.

mesenchymal stem cells [4] = experiment: Mesenchymal stem cell culture with growth factors with or without nicotinamide, cell counts
Protocol: Isolation: Bone marrow derived and adipose tissue derived mesenchymal cells were isolated based on their plastic adherence potential in expansion medium containing: High glucose DMEM and 10% Fetal Bovine Serum (FBS, Hyclone, Logan, Utah, USA) supplemented with 0.05 mg/ml Gentamicin (Sigma) and 2 mM L-glutamine (Biological Industries, Israel). Cells were allowed to adhere for 3-4 days and non-adherent cells were washed out with medium changes. The medium was further exchanged with fresh medium every 3-4 days.
Maintenance and expansion: Once adherent cells reached approximately 80-90% confluency, they were detached with 0.25% trypsin-EDTA (Sigma), washed twice in DMEM and 10% Fetal Bovine Serum, with centrifugation, 400 g, 5 minutes, and re-plated at a 1:2 to 1:1000 dilution under the same culture conditions.
Measurement of number of cells in culture: Cell number was measured using Cedex Automated Cell Counter (Innovatis). The cells were diluted 1:2 in Trypan Blue (Sigma) and cell number was measured automatically under microscope.
Treatment of mesenchymal cultures with nicotinamide: Mesenchymal cultures were initiated as described above, and supplemented with nicotinamide 1-15 mM alone, or in combination with growth factors or growth factors alone, incubated at 37° C. in a humidified atmosphere of 5% CO2 in air. At each passage and at each medium exchange, the cultures were supplemented with mesenchymal medium, nicotinamide and growth factors.
Mesenchymal stem cells were selected and cultured in the presence of particular growth factors (basic fibroblast growth factor—bFGF, heparin binding epidermal growth factor—HB-EGF, fibroblast growth factor 4—FGF-4 and platelet derived growth factor, homodimer, subunit B, PDGF-BB) in the presence and absence of nicotinamide for three or four passages and the number and size of the cells was calculated.
Two concentrations (10 and 50 ng/ml) of each one of the following factors were examined.
In addition, the influence of the combination: 5 mM NAM+50 ng/ml FGF4+50 ng/ml PDGF-BB was examined in comparison to an individual supplement.

mesenchymal stem cells [5] = experiment: Senescence evaluation assay of cultured MSCs; details: MSCs cultured with nicotinamide
Protocol: Senescence evaluation assay: Cultured MSCs were stained using the Senescence beta-Galactosidase Staining Kit (Cell Signaling). The cells are fixed and stained for detection of beta-Galactosidase activity at pH 6 using X-Gal and incubation overnight in 37° C. in dry incubator.

[6] = system: Transforming Growth Factor-β (TGFβ); experiment: TGFβ content of MSC conditioned medium by ELISA; details: passage 4; 5 mM NAM, 50 ng/ml FGF4; serum- and FGF4-free medium for 24 hours
Protocol: as §1, with “FIG. 23” for “FIG. 24”, “of Transforming” for “of Keratinocyte”, “Growth Factor-β (TGFβ)” for “Growth Factor (KGF)”, “for TGFβ” for “for KGF”, “on TGFβ” for “on KGF”

NC(=O)c1cccnc1 [nicotinamide, Nicotinamide]
cell size / undifferentiated state of MSCs cultured with FGF4 (mesenchymal stem cells [1]; FGF4 50 ng/ml, NAM 5 mM, Cedex cell counter): preserves the undifferentiated state
cell size and granularity of MSCs grown with nicotinamide vs without (mesenchymal stem cells [1]; identical conditions without nicotinamide as comparison): smaller and less granular
KGF level in conditioned medium [2]: elevated levels
expansion rate of bone marrow derived MSCs ([3]; low concentration of nicotinamide, e.g. 0.1 mM): insignificant effect
MSC doubling time ([3]; nicotinamide added from initiation of culture and at each passage): decreasing doubling time
seeding efficacy (selection) of bone marrow derived MSCs ([3]; seeded with or without nicotinamide): increased the seeding efficacy
effect on the ability of FGF4 to increase proliferation of mesenchymal stem cells (mesenchymal stem cells [4]; 5 mM NAM with FGF4 50 ng/ml): potentiating effect
proliferative capacity of large batches of MSCs (mesenchymal stem cells [4]; cultured with nicotinamide): enhanced proliferative capacity
number of senescent cells following culture (mesenchymal stem cells [5]): reduced
TGF-β level in conditioned medium [6]: elevated levels
